Laboratory results reported in patent publication US10538567B2, “Compounds as peptidic trigonal GLP1/glucagon/GIP receptor agonists” (priority 2016, dated 2020).
Numbered stars: 1 amine (or outer) side, 2 acyl side, 3 side chain; on linkers, the order of the positions; unused ones are H or OH. Square brackets hold non-standard residues; d marks the D form. Side chains are listed from the residue outwards. Peptide text beside a SMILES is read from it. * marks the point of attachment. γGlu = O=C(O)[C@H](CCC(=O)[*:2])N[*:1]; Palmitoyl = CCCCCCCCCCCCCCCC(=O)*; Aib = CC(C)(N)C(=O)O

Experiments:
[1] = biological target: T1, human GLP-1 receptor (Homo sapiens, UniProt P43220); experiment: cAMP response (HTRF) of HEK-293 cells stably expressing human GLP-1 receptor; assay type: cell-based; details: Table 8; read-out: EC50 hGLP-1R
T1 construct: expressed in transfected cells; host or cells: HEK-293
Experimental: cAMP content of cells was determined using a kit from Cisbio Corp. (cat. no. 62AM4PEJ) based on HTRF (Homogenous Time Resolved Fluorescence). For preparation, cells were split into T175 culture flasks and grown overnight to near confluency in medium (DMEM/10% FBS). Medium was then removed and cells washed with PBS lacking calcium and magnesium, followed by proteinase treatment with accutase (Sigma-Aldrich cat. no. A6964). Detached cells were washed and resuspended in assay buffer (1×HBSS; 20 mM HEPES, 0.1% BSA, 2 mM IBMX) and cellular density determined. They were then diluted to 400000 cells/ml and 25 μl-aliquots dispensed into the wells of 96-well plates. For measurement, 25 μl of test compound in assay buffer was added to the wells, followed by incubation for 30 minutes at room temperature.
Potencies of peptidic compounds at the GLP-1, glucagon and GIP receptors were determined by exposing cells expressing human glucagon receptor (hGlucagon R), human GIP receptor (hGIP-R) or human GLP-1 receptor (hGLP-1 R) to the listed compounds at increasing concentrations and measuring the formed cAMP as described in Methods.

[2] = system: male ApoE KO mice; experiment: Anti-atherosclerotic activity in ApoE KO mice, 16 weeks minipump infusion; assay type: in vivo; details: 150 μg/kg/day; for reduction of atherosclerotic plaques relative to vehicle control: 4 months (16 weeks) s.c. minipump; for LDL-cholesterol: 16 weeks
From the text: The apolipoprotein E (ApoE) knockout (KO) mouse model is widely used to investigate atherosclerosis. These mice spontaneously develop atherosclerotic lesions that are morphologically similar to those observed in humans (Meir & Leitersdorf 2004, Arterioscler Thromb Vasc Biol 24: 1006-1014, Rosenfeld et al. 2000, Arterioscler Thromb Vasc Biol 20: 2587-2592).
Male ApoE KO mice (B.129P2-apoetm1Unc/J) were randomly allocated to control or treatment groups (N=15 per group); wild-type mice (C57BL6/J) received vehicle treatment and acted as a second, healthy control.
ApoE KO and wild-type mice received constant 16 weeks infusion using subcutaneous osmotic minipumps (ALZET™) filled with either vehicle (sterile acetate buffer, pH 4.5), Peptides SEQ ID NO. 6 & SEQ ID NO. 11 (150 μg/kg/day) or with Liraglutide (600 μg/kg/day). Body weight and food intake was monitored throughout the study on a weekly basis.
Blood samples for blood lipid analysis were drawn before treatment and at weeks 7 and 16 to analyze total cholesterol, low density lipoprotein (LDL) cholesterol and high density lipoprotein (HDL) cholesterol (not shown).
The aorta was dissected and aortic atherosclerotic plaque formation was measured as absolute and relative plaque area (% oilred stained area of total aortic surface area) using quantitative and automated image analysis.

T1 sequence (P43220 24-463): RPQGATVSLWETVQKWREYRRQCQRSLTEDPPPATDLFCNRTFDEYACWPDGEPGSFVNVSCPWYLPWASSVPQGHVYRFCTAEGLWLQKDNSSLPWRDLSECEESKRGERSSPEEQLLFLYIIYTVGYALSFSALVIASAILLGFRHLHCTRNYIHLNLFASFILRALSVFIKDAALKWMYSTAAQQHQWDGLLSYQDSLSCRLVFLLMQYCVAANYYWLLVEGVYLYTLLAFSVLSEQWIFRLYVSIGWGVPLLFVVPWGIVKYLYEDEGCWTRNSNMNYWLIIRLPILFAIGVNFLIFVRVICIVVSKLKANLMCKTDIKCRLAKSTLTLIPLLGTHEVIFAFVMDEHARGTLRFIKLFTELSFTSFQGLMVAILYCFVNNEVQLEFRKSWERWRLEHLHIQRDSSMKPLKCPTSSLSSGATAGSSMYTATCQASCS

| SMILES | EC50 [1] | reduction of atherosclerotic plaques relative to vehicle control [2] | LDL-cholesterol [2] |
| --- | --- | --- | --- |
| CCCCCCCCCCCCCCCC(=O)N[C@@H](CCC(=O)N[C@@H](CCC(=O)NCCCC[C@H](NC(=O)[C@H](CC(C)C)NC(=O)[C@H](CCCCN)NC(=O)[C@H](CO)NC(=O)[C@H](CC(C)C)NC(=O)[C@H](CC(=O)O)NC(=O)[C@H](CO)NC(=O)[C@@H](NC(=O)[C@H](Cc1ccccc1)NC(=O)[C@@H](NC(=O)CNC(=O)[C@H](Cc1c[nH]cn1)NC(=O)C(C)(C)NC(=O)[C@@H](N)Cc1c[nH]cn1)[C@@H](C)O)[C@@H](C)O)C(=O)N[C@@H](CCC(=O)O)C(=O)N[C@@H](CCC(=O)O)C(=O)N[C@@H](CCC(N)=O)C(=O)N[C@@H](CCCNC(=N)N)C(=O)N[C@@H](CCC(N)=O)C(=O)N[C@@H](CCCCN)C(=O)N[C@@H](CCC(=O)O)C(=O)N[C@@H](Cc1ccccc1)C(=O)N[C@H](C(=O)N[C@@H](CCC(=O)O)C(=O)N[C@@H](Cc1c[nH]c2ccccc12)C(=O)N[C@@H](CC(C)C)C(=O)N[C@@H](CCCCN)C(=O)N[C@@H](C)C(=O)NCC(=O)NCC(=O)N[C@@H](Cc1c[nH]cn1)C(=O)N1CCC[C@H]1C(=O)N[C@@H](CO)C(=O)NC(C)(C)C(=O)N[C@@H](CCCCN)C(=O)N1CCC[C@H]1C(=O)N1CCC[C@H]1C(=O)N1CCC[C@H]1C(=O)N[C@@H](CCCCN)C(N)=O)[C@@H](C)CC)C(=O)O)C(=O)O [SEQ ID NO: 6, H-Aib-H-G-T-F-T-S-D-L-S-K-L-K[gGlu-gGlu-Palm]-E-E-Q-R-Q-K-E-F-I-E-W-L-K-A-G-G-H-P-S-Aib-K-P-P-P-K-NH2] | 1.4 pM | 63% | marked reduction |
| CCCCCCCCCCCCCCCC(=O)N[C@@H](CCC(=O)N[C@@H](CCC(=O)NCCCC[C@H](NC(=O)[C@H](CC(C)C)NC(=O)[C@H](CCCCN)NC(=O)[C@H](CO)NC(=O)[C@H](CC(C)C)NC(=O)[C@H](CC(=O)O)NC(=O)[C@H](CO)NC(=O)[C@@H](NC(=O)[C@H](Cc1ccccc1)NC(=O)[C@@H](NC(=O)CNC(=O)[C@H](Cc1c[nH]cn1)NC(=O)C(C)(C)NC(=O)[C@@H](N)Cc1c[nH]cn1)[C@@H](C)O)[C@@H](C)O)C(=O)N[C@@H](CCC(=O)O)C(=O)N[C@@H](CCC(=O)O)C(=O)N[C@@H](CCC(N)=O)C(=O)N[C@@H](CCCNC(=N)N)C(=O)N[C@@H](CCC(N)=O)C(=O)NC(C)(C)C(=O)N[C@@H](CCC(=O)O)C(=O)N[C@@H](Cc1ccccc1)C(=O)N[C@H](C(=O)N[C@@H](CCC(=O)O)C(=O)N[C@@H](Cc1c[nH]c2ccccc12)C(=O)N[C@@H](CC(C)C)C(=O)N[C@@H](CCCCN)C(=O)N[C@@H](C)C(=O)N[C@H](C)C(=O)NCC(=O)N1CCC[C@H]1C(=O)N1CCC[C@H]1C(=O)N[C@@H](CO)C(=O)NC(C)(C)C(=O)N[C@@H](CCCCN)C(=O)N1CCC[C@H]1C(=O)N1CCC[C@H]1C(=O)N1CCC[C@H]1C(=O)N[C@@H](CCCCN)C(N)=O)[C@@H](C)CC)C(=O)O)C(=O)O [SEQ ID NO: 11, H-Aib-H-G-T-F-T-S-D-L-S-K-L-K[gGlu-gGlu-Palm]-E-E-Q-R-Q-Aib-E-F-I-E-W-L-K-A-dAla-G-P-P-S-Aib-K-P-P-P-K-NH2] (H-H[Aib]HGTFTSDLSKLK([γGlu-γGlu-Palmitoyl])EEQRQ[Aib]EFIEWLKA[dA]GPPS[Aib]KPPPK-NH2) | – | 73% | marked reduction |
